# Results from PubChem BioAssay (NCI).
#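 Values below derive from 48-hour exposures of cells grown in 96-well plates, with endpoints linearly interpolated between the two concentrations bracketing the appropriate inhibition level. Abbreviation: GI50, concentration required for 50% inhibition of growth. The concentration for full growth arrest is given as TGI.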
# Experiments:
# Assay in all cases: NCI anticancer screen, dose series, 48 h
# 786-0 renal = tested on: 786-0 renal
# BT-549 breast = tested on: BT-549 breast
# HCT-116 colon = tested on: HCT-116 colon
# HOP-62 NSCLC = tested on: HOP-62 NSCLC
# HS 578T breast = tested on: HS 578T breast
# NCI-H460 lung = tested on: NCI-H460 lung
# OVCAR-3 ovarian = tested on: OVCAR-3 ovarian
# U251 CNS = tested on: U251 CNS
# IGROV1 ovarian = tested on: IGROV1 ovarian
# MALME-3M melanoma = tested on: MALME-3M melanoma
Compound,TGI (786-0 renal) [µM],TGI (BT-549 breast) [µM],TGI (HCT-116 colon) [µM],TGI (HOP-62 NSCLC) [µM],TGI (HS 578T breast) [µM],TGI (NCI-H460 lung) [µM],TGI (OVCAR-3 ovarian) [µM],TGI (U251 CNS) [µM],TGI (IGROV1 ovarian) [µM],TGI (MALME-3M melanoma) [µM],GI50 (HCT-116 colon) [µM],GI50 (HOP-62 NSCLC) [µM],GI50 (IGROV1 ovarian) [µM],GI50 (MALME-3M melanoma) [µM],GI50 (NCI-H460 lung) [µM],GI50 (OVCAR-3 ovarian) [µM],GI50 (U251 CNS) [µM],GI50 (HS 578T breast) [µM]
CCOC(=O)C1=COC(C)(CCc2ccccc2)CC1=O (stereo unspecified),> 100,> 100,> 100,> 100,> 100,> 100,> 100,> 100,–,–,–,–,–,–,–,–,–,–
O=C1Nc2ccccc2Nc2ccncc21,–,–,> 100,> 100,–,> 100,> 100,> 100,> 100,> 100,–,–,–,–,–,–,–,–
CC(=O)[CH-]C(=O)c1ccccc1.CC(=O)[CH-]C(=O)c1ccccc1.C[C@]12CCC(=O)C=C1CC[C@@H]1C2CC[C@@]2(C)C1CC[C@]2(C)[O-].C[C@]12CCC(=O)C=C1CC[C@@H]1C2CC[C@@]2(C)C1CC[C@]2(C)[O-].Cl.[Ti+4] (stereo partly specified),–,–,> 100,62.7,–,49.9,> 100,54.2,46.1,37.1,22.2,24.1,19.3,13.2,16.4,27.9,15.2,–
COc1cccc(/C=N/[N-]C(N)=O)c1[O-].[Cu+2].[OH3+].c1ccc(-c2ccccn2)nc1,36.6,–,> 63,> 67.7,–,> 100,> 100,31.3,> 74.8,> 100,–,–,–,–,–,–,–,–
COc1ccc(/C=C/C2=NN(c3cccc(S(=O)(=O)O)c3)C3(C2)SCC(=O)N3c2nc3ccccc3s2)cc1 (stereo unspecified),> 100,> 100,> 100,–,> 100,> 100,–,> 100,> 100,> 100,–,–,–,–,–,–,–,–
Cc1nc2ccccc2c(/C=C/c2ccc(Cl)cc2)c1C(=O)/C=C/c1ccc(Cl)cc1,–,–,–,–,5.97,3.15,–,3.03,–,–,–,–,–,–,1.41,–,1.39,2.06
COc1ccc2oc(=O)c(-c3csc(C)n3)cc2c1,> 100,29.2,> 100,84,79.3,> 100,–,60.9,> 100,–,–,–,–,–,–,–,–,–
CC(C)C1N(C)c2ccc(Cl)cc2[C@H]2c3ccccc3CCN12 (stereo partly specified),> 100,> 100,> 100,> 100,82.1,> 100,70.3,> 100,> 100,–,–,–,–,–,–,–,–,–
O=C(NC(=S)NC(=O)c1cc(O)c(O)c(O)c1)c1cc(O)c(O)c(O)c1,40.2,–,44.4,–,–,> 100,–,84.9,–,–,–,–,–,–,–,–,–,–
CC(C)(C)OC(=O)NCCCCC(NC(=O)c1ccccc1)C(N)=O (stereo unspecified),> 100,> 100,> 100,> 100,> 100,> 100,> 100,> 100,–,> 100,–,–,–,–,–,–,–,–
CC1C(c2ccc(Cl)cc2)c2cc3c(cc2OC1N1CCOCC1)OCO3 (stereo unspecified),> 100,–,> 100,> 100,70.4,> 100,> 100,–,> 100,–,–,–,–,–,–,–,–,–
O=C(Nc1ccccc1)c1cc(S(=O)(=O)N2CCNNC2=O)c(S)cc1Cl,> 100,> 100,95.5,–,> 100,> 100,> 100,> 100,> 100,> 100,–,–,–,–,–,–,–,–
CCc1ccccc1NNc1cc(=O)[nH]c(=O)[nH]1,32.5,41.4,31.1,35.1,68.6,52.6,30.8,31.2,37.8,–,–,–,–,–,–,–,–,–
O=C1Nc2ccccc2/C1=c1\[nH]c(=O)/c(=C\c2ccc(OCc3ccccc3)cn2)[nH]c1=O,> 100,–,> 100,65.7,70.1,> 100,> 100,44.8,> 100,> 100,–,–,–,–,–,–,–,–
CC1CC(=O)N(N(C)C)C(C#N)(C#N)C1(C#N)C#N (stereo unspecified),28.6,32.7,51.7,> 60.6,59.7,–,44.6,42.4,40,29.3,–,–,–,–,–,–,–,–
CC(=O)N(O)c1ccc(-c2nc3ccccc3s2)cc1,> 100,–,> 100,> 100,> 100,> 100,> 100,> 100,> 100,88.9,–,–,–,–,–,–,–,–
Cc1ccccc1NC(=O)Cc1csc2[n+]1C(=O)/C(=C/c1ccc([N+](=O)[O-])cc1)S2,> 100,38.6,> 100,> 100,–,88,> 100,> 100,> 100,–,–,–,–,–,–,–,–,–
Cc1nc2c(=S)n(C)ncc2[nH]1,> 100,> 100,> 100,> 100,–,–,> 100,> 100,> 100,69.7,–,–,–,–,–,–,–,–
NNC(=O)c1cc(=O)[nH][nH]1,> 100,> 100,> 100,–,> 100,> 100,–,> 100,> 100,> 100,–,–,–,–,–,–,–,–
C[C@H](C/C=C/C(C)(C)O)[C@H]1CC[C@@]2(C)[C@@H]3CC[C@H]4C(C)(C)[C@@H](O)CC[C@@]45C[C@@]35CC[C@]12C,46.5,56,37.1,33.6,27.8,54.2,> 100,53.8,48.9,–,–,–,–,–,–,–,–,–
COc1cc(N(Cc2ccc3oc(=O)c(-c4ccccc4)nc3c2)Cc2ccc3oc(=O)c(-c4ccccc4)nc3c2)cc(OC)c1OC,> 10,–,> 10,> 10,> 10,> 10,> 10,> 10,> 10,–,–,–,–,–,–,–,–,–
COc1cc(C2c3cc4c(cc3OC(N3CCNCC3)C2C)OCO4)cc(OC)c1OC (stereo unspecified),15.7,30.2,9.23,27.3,3.35,10.9,0.512,> 43.8,17.5,–,–,–,–,–,–,–,–,–
CN(C)c1cccc(NC2=NCCO2)c1,> 100,–,> 100,> 100,> 100,> 100,> 100,> 100,> 100,> 100,–,–,–,–,–,–,–,–
CCOc1cc(NC(C)=O)ccc1C(=O)NN1C(=O)CSC1c1ccccc1 (stereo unspecified),> 100,> 100,> 100,> 100,> 100,> 100,> 100,–,> 100,> 100,–,–,–,–,–,–,–,–
